Results on nine molecules are retold here after ChEMBL document CHEMBL1151944, “Activation of peroxisome proliferator-activated receptor gamma (PPARgamma) by nitroalkene fatty acids: importance of nitration position and degree of unsaturation” (J Med Chem, 2009).

Activity calls are given as the source filed them. The rule behind the calls is not given here. Bounds are passed on as bounds.

For data set [1], the target named is T1, Peroxisome proliferator-activated receptor gamma (Homo sapiens, UniProt P37231).
T1 sequence (P37231 whole entry): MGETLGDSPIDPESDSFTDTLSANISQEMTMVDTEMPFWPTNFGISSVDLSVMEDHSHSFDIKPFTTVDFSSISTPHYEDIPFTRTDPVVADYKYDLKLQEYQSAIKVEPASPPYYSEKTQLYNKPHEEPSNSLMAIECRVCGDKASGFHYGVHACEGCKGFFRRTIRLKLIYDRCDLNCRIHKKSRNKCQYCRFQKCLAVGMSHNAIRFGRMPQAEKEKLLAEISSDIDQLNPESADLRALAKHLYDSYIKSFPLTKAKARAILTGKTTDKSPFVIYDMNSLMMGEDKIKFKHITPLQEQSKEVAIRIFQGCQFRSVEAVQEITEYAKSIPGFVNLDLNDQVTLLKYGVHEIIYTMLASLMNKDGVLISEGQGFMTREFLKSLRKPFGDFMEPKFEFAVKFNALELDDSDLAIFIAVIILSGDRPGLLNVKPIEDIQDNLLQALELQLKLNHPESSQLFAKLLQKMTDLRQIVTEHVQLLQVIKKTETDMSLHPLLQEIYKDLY
Put plainly: Displacement of [3H2]nTZD3 from GST-tagged human recombinant PPARgamma by scintillation proximity assay. (In general: Scintillation proximity formats need no separation of bound from free tracer.)

Data set [2] concerns the target T2, Peroxisome proliferator-activated receptor alpha (Homo sapiens, UniProt Q07869).
T2 sequence (Q07869 whole entry): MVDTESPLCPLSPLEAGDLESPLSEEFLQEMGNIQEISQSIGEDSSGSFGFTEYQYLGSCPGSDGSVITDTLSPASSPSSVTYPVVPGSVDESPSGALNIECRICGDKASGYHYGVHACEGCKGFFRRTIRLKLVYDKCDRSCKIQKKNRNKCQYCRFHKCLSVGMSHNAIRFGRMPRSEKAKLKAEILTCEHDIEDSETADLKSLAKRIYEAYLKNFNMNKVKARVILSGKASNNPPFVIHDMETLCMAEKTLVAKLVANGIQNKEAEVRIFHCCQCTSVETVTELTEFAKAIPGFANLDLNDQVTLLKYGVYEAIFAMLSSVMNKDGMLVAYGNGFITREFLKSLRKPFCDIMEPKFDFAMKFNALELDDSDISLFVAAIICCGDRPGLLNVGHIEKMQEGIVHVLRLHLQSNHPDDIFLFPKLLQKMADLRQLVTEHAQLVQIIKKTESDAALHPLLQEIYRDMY
Description: (§1) Displacement of [3H2]nTZD3 from GST-tagged human recombinant PPARalpha by scintillation proximity assay

Data set [3] can be described thus: Cytotoxicity against human MCF7 cells expressing human PPARgamma assessed as cell survival at 5 uM after 7 days by sulforhodamine B assay. On the technique in general: Sulforhodamine B stains cellular protein and so reports cell mass.
The target of data set [4] is T3, Peroxisome proliferator-activated receptor gamma (Homo sapiens) (UniProt P37231).
T3 sequence (whole entry): T1 sequence (P37231 whole entry)
The data set is described as follows: Activation of human PPAR-gamma-dependent transcription expressed in human MCF7 cells assessed as induction of PPRE-reporter gene expression at 1 uM after 24 hrs by dual luciferase reporter gene assay. In kind it is cell-based.

In data set [5] the target is T2, Peroxisome proliferator-activated receptor alpha. This is another data set of the same source.
Description: as §1

By IC50 is commonly meant the concentration that gives 50% inhibition. As to `CCCCCCCCCCCC/C=C(\CCCC(=O)O)[N+](=O)[O-]`, the concentration for half-maximal inhibition (IC50) was 1680 nM in data set [1] and above 15000 nM in data set [2].
The matching figures for `CCCCCC/C(=C\CCCCCCCC(=O)O)[N+](=O)[O-]`: 630 nM and above 15000 nM.
On to `CCCCCCCCCCCC/C(=C\CCCC(=O)O)[N+](=O)[O-]`, for which the 50% inhibitory concentration (IC50) in data set [1] was 1720 nM; in data set [2], above 15000 nM.
The like results for `CCCCC/C(=C\CCCCCCCCCCC(=O)O)[N+](=O)[O-]` were, in that order, 190 nM and 1100 nM.
As a reminder, the viability is a per cent measure of how many cells are alive, often set against a control. For `CCCCCCCC/C=C(\CCCCCCCC(=O)O)[N+](=O)[O-]` [NITROLEIC ACID], the viability at 168 h, 5 µM in data set [3] is below 5%. Further, the IC50 is 980 nM in data set [1] and above 15000 nM in data set [2].
`CCCCCC/C=C(\CCCCCCCC(=O)O)[N+](=O)[O-]`: the 50% inhibitory concentration (IC50) was 830 nM in data set [1] and above 15000 nM in data set [2].
With `CCCCC/C=C(\C/C=C\CCCCCCCC(=O)O)[N+](=O)[O-]`, in data set [4], the outcome was Active. The half-maximal inhibitory concentration (IC50) in data set [5] was 9600 nM.
In the case of `CCCCC/C=C(\CCCCCCCCCCC(=O)O)[N+](=O)[O-]`, the IC50 in data set [1] amounted to 39 nM; in data set [2], 1600 nM.
Turning to `CCCCCCCC/C(=C\CCCCCCCC(=O)O)[N+](=O)[O-]` [CXA-10], the half-maximal inhibitory concentration (IC50) in data set [1] was 1610 nM; in data set [2], above 15000 nM.
